Reference: patent EP3996708B1, “PHARMACEUTICAL COMPOSITIONS COMPRISING INHIBITORS OF OPA1 FOR USE IN THE TREATMENT OF CANCER” (priority 2019, dated 2021)
Like-named read-outs stand apart in the source and are kept apart here.

Experiments:
rOPA1 = target: T1, rOPA1 (Mus musculus, UniProt P58281); assay: Malachite green (MG) GTPase activity assay of rOPA1, assay set-up and high-throughput screening (384-well); assay type: biochemical; settings: for inhibition of rOPA1 GTP hydrolysis: comparison of candidates for positive control; for rOPA1 activity: increasing concentrations of the non-hydrolysable GTP analogues
T1 construct: His-tag (C); made in house; host or cells: E. coli
T1 sequence (P58281 168-960 limits assumed): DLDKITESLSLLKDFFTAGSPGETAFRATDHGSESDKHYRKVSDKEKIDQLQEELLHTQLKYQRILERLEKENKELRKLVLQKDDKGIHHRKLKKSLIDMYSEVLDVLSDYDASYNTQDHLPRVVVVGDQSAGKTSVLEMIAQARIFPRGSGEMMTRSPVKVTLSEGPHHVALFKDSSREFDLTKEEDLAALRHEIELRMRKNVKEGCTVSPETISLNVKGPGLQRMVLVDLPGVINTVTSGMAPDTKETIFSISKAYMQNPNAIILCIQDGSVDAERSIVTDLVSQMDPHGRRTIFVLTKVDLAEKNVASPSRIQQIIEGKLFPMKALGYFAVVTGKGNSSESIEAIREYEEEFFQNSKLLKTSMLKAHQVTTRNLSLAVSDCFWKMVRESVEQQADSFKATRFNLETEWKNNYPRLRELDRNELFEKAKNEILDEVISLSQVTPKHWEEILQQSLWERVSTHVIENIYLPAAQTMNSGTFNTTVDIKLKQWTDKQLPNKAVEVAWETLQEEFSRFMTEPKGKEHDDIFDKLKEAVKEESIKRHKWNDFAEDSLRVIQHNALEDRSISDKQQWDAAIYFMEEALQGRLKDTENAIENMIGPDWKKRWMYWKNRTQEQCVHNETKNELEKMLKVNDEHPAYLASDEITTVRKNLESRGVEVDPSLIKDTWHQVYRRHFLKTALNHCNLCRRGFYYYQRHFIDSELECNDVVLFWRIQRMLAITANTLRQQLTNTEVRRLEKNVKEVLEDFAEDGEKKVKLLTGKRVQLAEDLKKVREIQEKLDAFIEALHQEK

[1] = test system: mitochondria purified from mouse liver; assay: Membrane potential of isolated mitochondria by Rhodamine 123; settings: complex I (glutamate/malate) or complex II (succinate) substrates; concentrations well above rOPA1 IC50
Description: (§2) Quantitative determination of cytochrome c in the pellet and the supernatant fractions was determined using the rat/mouse specific ELISA Cytochrome c Immunoassay (R&D Systems). Respiratory chain dysfunctions and membrane potential were assayed by monitoring the release of rhodamine123 from pre-stained mitochondria.

[2] = test system: recombinant Dynamin-1 lacking the proline rich domain (PRD) (Dyn1ΔPRD); assay: Malachite green GTPase activity assay of recombinant Dynamin-1 (specificity); settings: even at concentrations four times above the calculated IC50 for OPA1
Description: The assay was performed in 96 well-plates in a final volume of 190 µl/well. To start the hydrolysis reaction, 10 µl of 0.5 µM of rOPA1 in 40 mM Hepes/KOH pH 7.4 was mixed with 10 µl of 500 µM GTP and 10 mM MgCl2 and incubated for 2 hours at 37 °C. The reaction was then halted by adding to each well 5 µl of 500 µM EDTA, which chelates the Mg2+ required for GTP hydrolysis. To measure the phosphate content, 150 µL of the Malachite Green-ammonium molybdate solution (1 mM Malachite Green, 10 mM ammonium molybdate in 1N HCl) was added at each well. After 15 minutes incubation at 25 °C, was measured the absorbance at 595 nm using a microplate reader. Phosphate concentration of each sample was calculated from a standard curve ranging from 1 to 100 µM Pi generated for each experiment. […] As positive control of OPA1 activity inhibition, 5 µl of 500 µM EDTA were added before incubation with GTP to prevent the hydrolysis reaction. Samples with only buffer and 500 µM GTP were used as blank controls.

MEFs [3] = assay: Cytochrome c immunolocalization after H2O2
Source text: For cytochrome c and TOM20 detection, green and red channel images respectively were acquired simultaneously using two separate color channels on the detector assembly of a Zeiss LSM 700 confocal microscope.

MEFs [4] = assay: Mitochondrial membrane potential by TMRM imaging in response to oligomycin; settings: range of concentrations well above rOPA1 IC50
[5] = test system: purified mouse liver mitochondria; assay: In vitro cytochrome c release from isolated mitochondria in response to cBID (ELISA, immunoblot)
Description: as §2

WT MEFs = assay: Analysis of cell death by Annexin V / propidium iodide flow cytometry in MEFs; settings: concentrations up to 100 µM, 24h
Description: (§3) Analysis of cell death: 1 × 10^5 MEFs were grown in 12-well plates. […] After different timepoints cells were stained with Annexin-V-FICT and propidium iodide (PI), according to manufacturer's protocol (eBioscienceTM). Cell death was measured by flow cytometry (FACSCalibur) as the percentage of Annexin-V and PI positive events.

MDA-MB-231 cells [6] = assay: Analysis of cell death by Annexin V / propidium iodide flow cytometry in MDA-MB-231 cells
Description: After 24h, viability was measured cytofluorimetrically as the percentage of Annexin V and propidium iodide negative cells. […] At the indicated timepoints, cells viability was measured cytofluorimetrically as the percentage of Annexin V and propidium iodide negative cells. Data represents average ± SEM of three independent experiments.
as §3

WT MEFs mitochondria = assay: Live imaging of mitochondrial network (mtYFP); settings: 50 µM or 100 µM, 24h
Description: After 24 h, the coverslips were incubated in Hank's Balanced Salt Solution (HBSS) supplemented with 10 mM Hepes and placed on the stage of the microscope. […] Stacks of 25 images separated by 0.3 µm along the z axis were acquired. Convolution and z-stack project were performed using a plug-in of the ImageJ software (National Institutes of Health). Mitochondrial length was quantified with Image J by measuring the average mitochondrial major axis length of 10 mitochondria per cell in 20 cells per sample.

MDA-MB-231 cells [7] = assay: Scratch wound migration assay; assay type: cell-based, human; settings: cells transfected with OPA1 siRNA, 20 µM MYLS22
Description: Scratch wound migration assay: HUVEC and MDA cells were cultured in 48-well plates in 800 µl of EGM2 for 48 hours and were wounded with the head of 200 µl tips.

[8] = test system: Mouse embryonic fibroblasts (MEFs); assay: Cell permeability (280 nm absorbance of extracellular medium; SPE and HPLC-UV of cell lysates); assay type: in vitro ADME
Source text: (§1) Drug Discov Today 17, 419-424).

[9] = Solubility in water, DMSO and cell culture medium; assay type: physicochemical
Source text: as §1

Compound: O=C(O)CN(CCN(CC(=O)O)CC(=O)O)CC(=O)O [EDTA, ethylenediaminetetraacetic acid]
- inhibition of rOPA1 GTP hydrolysis (rOPA1): stably and fully inhibited GTP hydrolysis

Compound: Nc1nc2c(ncn2[C@@H]2O[C@H](COP(=O)(O)OP(=O)(O)O)[C@@H](O)[C@H]2O)c(=O)[nH]1 [GDP]
- rOPA1 GTPase activity (rOPA1; 500 µM GDP): not influenced

Compound: Nc1nc2c(ncn2[C@@H]2O[C@H](COP(=O)(O)OP(=O)(O)NP(=O)(O)O)[C@@H](O)[C@H]2O)c(=O)[nH]1 [GMPPNP]
- rOPA1 activity (rOPA1): inhibited

Compound: Nc1nc2c(ncn2[C@@H]2O[C@H](COP(=O)(O)OP(=O)(O)OP(O)(O)=S)[C@@H](O)[C@H]2O)c(=O)[nH]1 [GTPγS]
- inhibition of rOPA1 GTP hydrolysis (rOPA1): residual rOPA1 activity
- rOPA1 activity (rOPA1): inhibited

Compound: Cc1nn(-c2ccccc2)c2sc(C(=O)Nc3c(C)n(C)n(-c4ccccc4)c3=O)cc12 [MYLS22, N-(1,5-dimethyl-3-oxo-2-phenyl-2,3-dihydro-1H-pyrazol-4-YL) 3-methyl-1-phenyl-1H-thieno[2,3-c]pyrazole-5-carboxamide]
- uptake of the potentiometric dye Rhodamine 123 [1]: did not reduce uptake
- Dyn1ΔPRD inhibition [2]: did not
- time to maximal release of cytochrome c after apoptosis induction (MEFs [3]; 50µM MYLS22, 1 mM H2O2): 30 min
- release of cytochrome c (MEFs [3]; 50µM MYLS22, H2O2, versus 25 µM MYLS22 or DMSO): significantly more rapidly
- mitochondrial membrane potential (TMRM fluorescence) (MEFs [4]): membrane potential was stable
- increase of the amount of cytochrome c release ([5]; 25µM MYLS22, cBID): 1.7 fold
- amount of cytochrome c release ([5]; 125 µM MYLS22, cBID): more than doubled
- cell death (WT MEFs): did not cause MEFs death
- cell death after an apoptotic stimulus (MDA-MB-231 cells [6]; 50 or 100 µM MYLS22 and 1 mM H2O2): enhances MDA-MB-231 cells death
- cell death (MDA-MB-231 cells [6]; indicated concentrations, 24h): does not induce cell death in MDA-MB-231 cells
- mitochondrial morphology (WT MEFs mitochondria): dose dependent mitochondrial fragmentation and decrease in mitochondrial length
- effect on cell migration combined with OPA1 silencing (MDA-MB-231 cells [7]): not additive
- cell permeability ([8]; HPLC-UV at 280 nm on cell lysates after SPE): can enter mammalian cells
- concentration of MYLS22 in the extracellular medium ([8]; MEFs in HBSS, 280 nm absorption over time): decreased with incubation time
- aqueous solubility [9]: low aqueous solubility
- solubility ([9]; DMSO, organic solvent or mixture, read-out: soluble in DMSO): ≤ 1000 µM
- solubility ([9]; cell culture medium, plasma or biological fluid, read-out: soluble in cell culture medium): ≤ 150 µM
